According to PubChem BioAssay AID2060487 (Molecular Pharmacology Branch, DTP, NCI, 2025):

Test system: 997537-175-T-J1-PDC complex spheroid viability
Test: Anticancer human tumor 997537-175-T-J1-PDC patient-derived colon adenocarcinoma cell line growth inhibition [GQUAD]
Conditions: for IC50: curve of first compound; for viability, T/C: stronger effect = lower value
How it was run: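 Viability of tumor cells grown as complex spheroids with endothelial and stromal cells, exposed to drug combinations. Top concentration at or near clinical Cmax (else 10 microM), diluted in half-log increments.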

[1] = second compound 0.0316 µM, first compound 0.0316 µM
[2] = second compound 0.0316 µM, first compound 0.1 µM
[3] = second compound 0.0316 µM, first compound 0.316 µM
[4] = second compound 0.0316 µM, first compound 1 µM
[5] = second compound 0.0316 µM, first compound 3.16 µM
[6] = second compound 0.0316 µM, first compound 10 µM
[7] = second compound 0.1 µM, first compound 0.0316 µM
[8] = second compound 0.1 µM, first compound 0.1 µM
[9] = second compound 0.1 µM, first compound 0.316 µM
[10] = second compound 0.1 µM, first compound 1 µM
[11] = second compound 0.1 µM, first compound 3.16 µM
[12] = second compound 0.1 µM, first compound 10 µM
[13] = second compound 0.316 µM, first compound 0.0316 µM
[14] = second compound 0.316 µM, first compound 0.1 µM
[15] = second compound 0.316 µM, first compound 0.316 µM
[16] = second compound 0.316 µM, first compound 1 µM
[17] = second compound 0.316 µM, first compound 3.16 µM
[18] = second compound 0.316 µM, first compound 10 µM
[19] = second compound 1 µM, first compound 0.0316 µM
[20] = second compound 1 µM, first compound 0.1 µM
[21] = second compound 1 µM, first compound 0.316 µM
[22] = second compound 1 µM, first compound 1 µM
[23] = second compound 1 µM, first compound 3.16 µM
[24] = second compound 1 µM, first compound 10 µM
[25] = second compound 3.16 µM, first compound 0.0316 µM
[26] = second compound 3.16 µM, first compound 0.1 µM
[27] = second compound 3.16 µM, first compound 0.316 µM
[28] = second compound 3.16 µM, first compound 1 µM
[29] = second compound 3.16 µM, first compound 3.16 µM
[30] = second compound 3.16 µM, first compound 10 µM
[31] = second compound 10 µM, first compound 0.0316 µM
[32] = second compound 10 µM, first compound 0.1 µM
[33] = second compound 10 µM, first compound 0.316 µM
[34] = second compound 10 µM, first compound 1 µM
[35] = second compound 10 µM, first compound 3.16 µM
[36] = second compound 10 µM, first compound 10 µM
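Further: spheroids exposed to the agents for 7 days.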
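Wherever viability, T/C is given: 100% = DMSO vehicle control viability.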

CC1COCCN1c1cc(C2(O)CC3CCC(C2)O3)c2cnn(-c3ccn[nH]3)c2n1 (centres undefined) + Cc1[nH]c2ccc(F)cc2c1-c1nc2c3cccnc3c3ncccc3c2[nH]1 showed an IC50 (second compound 0.0316 µM) of 303 nM, an IC50 (second compound 0.1 µM) of 355 nM and an IC50 (second compound 0.316 µM) of 305 nM. For the same compound, the IC50 (second compound 1 µM) was 155 nM, the IC50 (second compound 3.16 µM) was less than 31.6 nM and the IC50 (second compound 10 µM) was 74.6 nM. It also gave a viability, T/C [1] of 74.3%, a viability, T/C [2] of 56.8% and a viability, T/C [3] of 62.4%. For the same compound, the viability, T/C [4] was 22.3%, the viability, T/C [5] was 40.2% and the viability, T/C [6] was 56%. It also gave a viability, T/C [7] of 75.3%, a viability, T/C [8] of 59.5% and a viability, T/C [9] of 57.9%. It also gave a viability, T/C [10] of 32.7%, a viability, T/C [11] of 45.4% and a viability, T/C [12] of 52.7%. For the same compound, the viability, T/C [13] was 78.7%, the viability, T/C [14] was 61.9% and the viability, T/C [15] was 45.5%. The viability, T/C [16] was 38.6%, the viability, T/C [17] was 54% and the viability, T/C [18] was 60.4%. For the same compound, the viability, T/C [19] was 54.7%, the viability, T/C [20] was 57.6% and the viability, T/C [21] was 44.9%. The viability, T/C [22] was 40.8%, the viability, T/C [23] was 38.7% and the viability, T/C [24] was 61.4%. The viability, T/C [25] was 55.1%, the viability, T/C [26] was 34.3% and the viability, T/C [27] was 44%. The viability, T/C [28] was 29.2%, the viability, T/C [29] was 44.5% and the viability, T/C [30] was 60.4%. It also gave a viability, T/C [31] of 61.2%, a viability, T/C [32] of 44.8% and a viability, T/C [33] of 42.5%. For the same compound, the viability, T/C [34] was 43.6%, the viability, T/C [35] was 31.9% and the viability, T/C [36] was 41.3%.

Work on O=C(c1cc(Cc2n[nH]c(=O)c3ccccc23)ccc1F)N1CCN(C(=O)C2CC2)CC1 + Cc1[nH]c2ccc(F)cc2c1-c1nc2c3cccnc3c3ncccc3c2[nH]1 yielded an IC50 (second compound 0.0316 µM) greater than 10000 nM, an IC50 (second compound 0.1 µM) greater than 10000 nM and an IC50 (second compound 0.316 µM) greater than 10000 nM. For the same compound, the IC50 (second compound 1 µM) was greater than 10000 nM, the IC50 (second compound 3.16 µM) was greater than 10000 nM and the IC50 (second compound 10 µM) was greater than 10000 nM. For the same compound, the viability, T/C [1] was 99.8%, the viability, T/C [2] was 96.1% and the viability, T/C [3] was 93.2%. For the same compound, the viability, T/C [4] was 81.6%, the viability, T/C [5] was 79% and the viability, T/C [6] was 102%. The viability, T/C [7] was 91.8%, the viability, T/C [8] was 95.7% and the viability, T/C [9] was 77.1%. It also gave a viability, T/C [10] of 67.8%, a viability, T/C [11] of 89.5% and a viability, T/C [12] of 94.1%. For the same compound, the viability, T/C [13] was 76.1%, the viability, T/C [14] was 103% and the viability, T/C [15] was 90%. The viability, T/C [16] was 88.5%, the viability, T/C [17] was 98.4% and the viability, T/C [18] was 94.6%. It also gave a viability, T/C [19] of 76.9%, a viability, T/C [20] of 96.7% and a viability, T/C [21] of 73.6%. For the same compound, the viability, T/C [22] was 101%, the viability, T/C [23] was 106% and the viability, T/C [24] was 109%. The viability, T/C [25] was 90.7%, the viability, T/C [26] was 89.9% and the viability, T/C [27] was 100%. For the same compound, the viability, T/C [28] was 81.4%, the viability, T/C [29] was 94.4% and the viability, T/C [30] was 94.4%. The viability, T/C [31] was 71.9%, the viability, T/C [32] was 84.1% and the viability, T/C [33] was 96.7%. The viability, T/C [34] was 60.5%, the viability, T/C [35] was 79.8% and the viability, T/C [36] was 83.6%.
